According to patent publication US20240316023A1, “BENEDIN, PIPERIDINE, 2-BENZHYDRYL-3-HYDROXY-N-METHYL-, HYDROCHLORIDE AND DERIVATIVES THEREOF FOR USE IN TREATING KLEINE-LEVIN SYNDROME” (priority 2021, published 2024):

Assays:
Mice, C57BL/6J, male = assay: Novel object recognition (NOR) test, long-term memory; assay type: in vivo; settings: for DI Discrimination Index = 100 × (N − F)/(N + F) / N − F Exploration time novel − familiar object: choice trial 72 h post treatment, mean, N = 16; for recognition of the familiar object, i.e. memory: 3-days interval
Description: Long-term episodic memory was tested in the NOR test, using a 3-days interval between the acquisition session (called sample trial) and the retention session (called choice trial). This method allows to detect an improvement of memory in the natural forgetting condition:
The test was carried out in circular boxes (30 cm diameter, 40 cm high). The objects to be discriminated (L≈1≈h≈3-4 cm) differed in both color and shape and were referred as yellow duck and blue lego. They were fixed with a magnet to the floor of the boxes at 5 cm of the wall, 20 cm distant. Apparently, they have no natural significance for mice and they have never been associated with a reinforcement. In order to rule out the possibility of scent traces left on the objects and therefore the dependency of the recognition capacity of mice on the olfactory cue, the objects and the ground of the box were washed with an odorless disinfectant (Sanicid® diluted in water) and dried between each trial. A camcorder was fixed to the ceiling above the box to record the animals' activity. The experiment was analyzed blindly at a later time.
On the week before the test, animals were handled by the experimenter in charge of the experiment in order to be not stressed at the time of testing. For this purpose, the experimenter placed a small amount of litter, and then the mouse on its hand. […] The NOR test was completed over five days (see FIG. 1): • Day 1: Habituation trial. Animals were individually placed for a 15-min free exploration session in empty open boxes. • Day 2. Treatment administration and sample trial. […] They were individually placed 30 min after in the apparatus for a 6-min session with two identical objects (Duck, 50% of animals or Lego, 50% of animals). • […]. […]. The mice were individually placed for a 6-min session in the apparatus with two objects (Duck and Lego), one of the objects presented in sample trials (termed as familiar objects) and a novel object (Lego, 50% of animals or Duck, 50% of animals).
The sample and choice trials were recorded with the camera located above the apparatus. The time spent by mice in exploring the objects was measured during the sample trial and the choice trial.
Exploration of an object was defined as follows: directing the nose to the object at a distance≤2 cm and/or touching it with the nose or forelimbs: turning around or biting the object, or sitting on the object were not considered as exploratory behavior.
Data recorded: • L=exploration time of the left object in the sample trial. • R=exploration time of the right object in the sample trial. • N=exploration time of the new object in the choice trial. • F=exploration time of the familiar object in the choice trial. Object recognition task indices include the following parameters: • Exploration indices: • ST=L+R=exploration time (left object+right object) in the sample trial. • CT=N+F=exploration time (new object+familiar object) in the choice trial. • Two memory indices: • N−F=difference of exploration time between the new object and the familiar object in the choice trial.
Statistical analyses: • Read-outs: DI, N−F, ST, CT, N, F • Unpaired Student's t test: Donep 2 group vs. Control group. • One-way ANOVA, Dunnett test: • Benedin groups vs. Control group. • Benedin groups vs. Donep 2 group. • Read-outs: DI and N−F, for all groups, paired Student's t test, difference vs. 0. • Body weight: one-way ANOVA.

[1] = biological target: T1, Kappa (h) (KOP) (agonist radioligand) (Homo sapiens, UniProt P41145); assay: Radioligand binding panel (Eurofins/CEREP), kappa opioid; settings: 10^−5 M; % inhibition of control specific binding; read-out: % Inhibition at 10^−5M Benedin
T1 construct: CEREP (Eurofins, France), contract panel
T1 sequence (P41145 whole entry): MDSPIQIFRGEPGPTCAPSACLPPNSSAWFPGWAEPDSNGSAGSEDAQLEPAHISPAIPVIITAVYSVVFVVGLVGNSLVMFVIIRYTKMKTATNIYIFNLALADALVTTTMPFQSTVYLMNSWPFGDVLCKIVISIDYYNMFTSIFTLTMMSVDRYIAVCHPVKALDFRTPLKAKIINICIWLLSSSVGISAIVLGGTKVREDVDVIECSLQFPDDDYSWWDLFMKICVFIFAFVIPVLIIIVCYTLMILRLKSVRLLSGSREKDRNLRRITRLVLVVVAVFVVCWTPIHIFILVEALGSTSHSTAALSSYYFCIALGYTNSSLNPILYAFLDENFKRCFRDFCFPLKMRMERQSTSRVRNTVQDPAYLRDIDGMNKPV
Description: (§1) Benedin was tested at 10^−5 M, calculated as a % inhibition of control specific binding of a radioactively labeled ligand specific for each target.
(§2) This binding profile panel was broadly defined with roughly an equal number of selective, central and peripheral therapeutically relevant targets, including native animal tissues, radioligands and specific enzymes involved in cell cycle regulation in accordance with Eurofins Standard Operating Procedure.
(§3) For radioligand binding experiments, the half maximal inhibitory concentration (IC50) and the half maximal effective concentration (EC50) values were determined (via computer software) by nonlinear regression analysis of the competition curves using Hill equation curve fitting. The inhibition constants (Ki) were calculated using the Cheng-Prusoff equation (Ki=IC50/(1+(L/KD)), where L is the concentration of radioligand in the assay, and KD is the affinity of the radioligand for the receptor.^60
(§4) The results are expressed as a % control specific binding ([measured specific binding/control specific binding]×100) and as a % inhibition of control specific binding (100−[(measured specific binding/control specific binding)×100] obtained in the presence of the test compounds. […]

[2] = biological target: T2, DAT (h) (antagonist radioligand) (Homo sapiens, UniProt Q01959); assay: Radioligand binding panel (Eurofins/CEREP), DAT; settings: % inhibition of control specific binding
T2 construct: CEREP (Eurofins, France), contract panel
T2 sequence (Q01959 whole entry): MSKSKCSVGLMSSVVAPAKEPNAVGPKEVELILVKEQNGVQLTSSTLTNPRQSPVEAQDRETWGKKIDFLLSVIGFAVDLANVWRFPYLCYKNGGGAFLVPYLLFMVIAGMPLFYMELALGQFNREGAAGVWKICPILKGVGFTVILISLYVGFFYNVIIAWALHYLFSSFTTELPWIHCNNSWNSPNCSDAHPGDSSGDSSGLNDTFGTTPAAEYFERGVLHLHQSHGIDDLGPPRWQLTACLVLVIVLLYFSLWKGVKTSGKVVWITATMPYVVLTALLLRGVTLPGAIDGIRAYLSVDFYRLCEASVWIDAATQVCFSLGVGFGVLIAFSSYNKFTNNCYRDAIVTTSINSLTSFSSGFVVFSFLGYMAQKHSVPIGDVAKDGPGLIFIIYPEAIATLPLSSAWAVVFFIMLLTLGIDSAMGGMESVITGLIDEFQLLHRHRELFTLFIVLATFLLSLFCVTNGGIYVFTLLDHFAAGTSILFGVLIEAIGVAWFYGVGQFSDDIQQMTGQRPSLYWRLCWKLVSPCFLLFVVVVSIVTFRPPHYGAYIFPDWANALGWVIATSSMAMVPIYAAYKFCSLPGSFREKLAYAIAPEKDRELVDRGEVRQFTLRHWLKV
Description: as §1, §2, §3, §4

[3] = biological target: T3, M3 (h) (antagonist radioligand) (Homo sapiens, UniProt P20309); assay: Radioligand binding panel (Eurofins/CEREP), M3; settings: 10^−5 M; % inhibition of control specific binding; read-out: % Inhibition at 10^−5M Benedin
T3 construct: CEREP (Eurofins, France), contract panel
T3 sequence (P20309 whole entry): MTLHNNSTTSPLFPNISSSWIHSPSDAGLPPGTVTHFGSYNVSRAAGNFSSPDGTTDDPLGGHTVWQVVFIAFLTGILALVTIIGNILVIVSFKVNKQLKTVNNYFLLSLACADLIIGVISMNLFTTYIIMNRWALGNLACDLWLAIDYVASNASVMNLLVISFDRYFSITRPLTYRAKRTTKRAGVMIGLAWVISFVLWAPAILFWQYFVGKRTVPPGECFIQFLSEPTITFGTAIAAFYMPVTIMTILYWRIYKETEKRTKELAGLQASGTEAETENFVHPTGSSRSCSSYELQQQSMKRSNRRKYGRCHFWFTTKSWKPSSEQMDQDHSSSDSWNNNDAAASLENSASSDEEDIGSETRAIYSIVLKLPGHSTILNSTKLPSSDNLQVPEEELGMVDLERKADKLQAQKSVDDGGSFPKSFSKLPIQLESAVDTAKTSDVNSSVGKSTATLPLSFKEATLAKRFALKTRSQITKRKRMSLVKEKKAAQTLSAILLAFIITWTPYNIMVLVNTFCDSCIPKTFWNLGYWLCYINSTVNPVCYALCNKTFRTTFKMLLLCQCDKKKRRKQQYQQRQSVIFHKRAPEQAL
Description: as §1, §2, §3, §4

CN1CCCC(O)C1C(c1ccccc1)c1ccccc1 (stereo not shown) [Benedin, 2-benzhydryl-3-hydroxy-N-methyl-piperidine]
DI Discrimination Index = 100 × (N − F)/(N + F) (Mice, C57BL/6J, male; Benedin 0.1 mg/kg i.p. 30 min before sample trial): not significantly different from 0 | DI Discrimination Index = 100 × (N − F)/(N + F) (Mice, C57BL/6J, male; Benedin 0.1 mg/kg i.p. 30 min before sample trial, listed as NLS-11): 12.0 | recognition of the familiar object, i.e. memory (Mice, C57BL/6J, male; Benedin 0.1 mg/kg i.p.): not significant | N − F Exploration time novel − familiar object (Mice, C57BL/6J, male; Benedin 0.1 mg/kg i.p.): not significantly different from 0 | N − F Exploration time novel − familiar object (Mice, C57BL/6J, male; Benedin 0.1 mg/kg i.p., listed as NLS-11): 3.4 s | DI Discrimination Index = 100 × (N − F)/(N + F) (Mice, C57BL/6J, male; Benedin 0.5 mg/kg i.p. 30 min before sample trial): significantly higher than 0 | DI Discrimination Index = 100 × (N − F)/(N + F) (Mice, C57BL/6J, male; Benedin 0.5 mg/kg i.p. 30 min before sample trial, listed as NLS-11): 23.5 | recognition of the familiar object, i.e. memory (Mice, C57BL/6J, male; Benedin 0.5 mg/kg i.p.): significant | N − F Exploration time novel − familiar object (Mice, C57BL/6J, male; Benedin 0.5 mg/kg i.p.): significantly higher than 0 | N − F Exploration time novel − familiar object (Mice, C57BL/6J, male; Benedin 0.5 mg/kg i.p., listed as NLS-11): 6.2 s | DI Discrimination Index = 100 × (N − F)/(N + F) (Mice, C57BL/6J, male; Benedin 1 mg/kg i.p. 30 min before sample trial): not significantly different from 0 | DI Discrimination Index = 100 × (N − F)/(N + F) (Mice, C57BL/6J, male; Benedin 1 mg/kg i.p. 30 min before sample trial, listed as NLS-11): 13.0 | recognition of the familiar object, i.e. memory (Mice, C57BL/6J, male; Benedin 1 mg/kg i.p.): not significant | N − F Exploration time novel − familiar object (Mice, C57BL/6J, male; Benedin 1 mg/kg i.p.): not significantly different from 0 | N − F Exploration time novel − familiar object (Mice, C57BL/6J, male; Benedin 1 mg/kg i.p., listed as NLS-11): 4.0 s | inhibition at 10 µM [1]: 39.2% | inhibition at 10 µM ([2]; 10^−5 M, read-out: % Inhibition at 10^−5M Benedin): 99.1% | % Inhibition at 10^−5M Benedin [2]: appreciable potencies | inhibition at 10 µM [3]: 44.6%
